From ChEMBL document CHEMBL1142825, “Synthesis and antiviral activity against Coxsackie virus B3 of some novel benzimidazole derivatives” (Bioorg Med Chem Lett, 2005)
In brackets after ≈: the same amount, converted by molar mass. Several values for one entry are separate records, joined by “and”; a condition that tells them apart may be missing. Equal values may be shown once.

What was measured:
Vero [1] = test: Antiviral activity against Coxsackie virus B3 growth by 50% in Vero cells; format: functional, cell-based, Chlorocebus sabaeus
Vero [2] = test: Selectivity index (TC50/IC50) against Coxsackie virus B3 in Vero cells; format: functional, Chlorocebus sabaeus
Vero [3] = test: Cytotoxic concentration required to inhibit Vero cell growth by 50%; format: functional, Chlorocebus sabaeus; details: for CC50: Chlorocebus sabaeus, Vero, read-out: TC50 (the source's name)
Vero [4] = test: Antiviral activity against Coxsackie virus B3 growth by 50% in Vero cells:not active; format: functional, cell-based, Chlorocebus sabaeus
[5] = Chlorocebus sabaeus, Vero, read-out: IC50

Row | SMILES | IC50 (Vero [1]; [5]) | SI (Vero [2]) | CC50 (Vero [3]) | IC50 (Vero [4]) | IC50 (Vero [1]; vero) | TC50 (Vero [3])
1 | O=C(Nc1ccccc1)c1cccc2[nH]c(-c3cccnc3)nc12 | 1.17 µg/mL (≈ 3.72 µM) | 9.17 | 10.7 µg/mL (≈ 34.2 µM) | – | – | –
2 | NC(=O)c1cccc2[nH]c(-c3ccccn3)nc12 | 7.29 µg/mL (≈ 30.6 µM) | 7.32 | 53.4 µg/mL (≈ 224 µM) | – | – | –
3 | O=C(NCCO)c1cccc2[nH]c(-c3ccccn3)nc12 | 37 µg/mL (≈ 131 µM) | 4.32 | 160 µg/mL (≈ 567 µM) | – | – | –
4 | O=C(Nc1ccc(Cl)cc1)c1cccc2[nH]c(-c3ccncc3)nc12 | 8.72 µg/mL (≈ 25 µM) | 2.35 | < 20.9 µg/mL | – | – | –
5 | O=C(Nc1ccccc1)c1cccc2[nH]c(-c3ccccn3)nc12 | 1.43 µg/mL (≈ 4.55 µM) | 38.8 | 55.6 µg/mL (≈ 177 µM) | – | – | –
6 | O=C(Nc1ccccc1F)c1cccc2[nH]c(-c3cccnc3)nc12 | 3.23 µg/mL (≈ 9.72 µM) | 11.4 | 37 µg/mL (≈ 111 µM) | – | – | –
7 | O=C(Nc1ccccc1O)c1cccc2[nH]c(-c3ccncc3)nc12 | 4.05 µg/mL (≈ 12.3 µM) | 4.56 | < 18.5 µg/mL | – | – | –
8 | O=C(Nc1ccccc1F)c1cccc2[nH]c(-c3ccncc3)nc12 | – | – | 12.3 µg/mL (≈ 37 µM) | Not Active | – | –
9 | O=C(NCCO)c1cccc2[nH]c(-c3ccncc3)nc12 | – | – | 141 µg/mL (≈ 498 µM) | Not Active | – | –
10 | O=C(Nc1cccc(O)c1)c1cccc2[nH]c(-c3ccncc3)nc12 | – | – | < 5.9 µg/mL | Not Active | – | –
11 | O=C(Nc1ccccc1)c1cccc2[nH]c(-c3ccncc3)nc12 | 3.85 µg/mL (≈ 12.2 µM) | 4.06 | 15.6 µg/mL (≈ 49.8 µM) | – | – | –
12 | O=C(NCCO)c1cccc2[nH]c(-c3cccnc3)nc12 | 25.6 µg/mL (≈ 90.6 µM) | 7.51 | 192 µg/mL (≈ 682 µM) | – | – | –
13 | O=C(Nc1ccc([N+](=O)[O-])cc1)c1cccc2[nH]c(-c3ccncc3)nc12 | 18.5 µg/mL (≈ 51.5 µM) | 2.99 | < 55.5 µg/mL | – | – | –
14 | NC(=O)c1ncn([C@@H]2O[C@H](CO)[C@@H](O)[C@H]2O)n1 [RIBAVIRIN] | 448 µg/mL (≈ 1830 µM) | >2.23 | > 1000 µg/mL | – | – | –
15 | O=C(Nc1ccccc1F)c1cccc2[nH]c(-c3ccccn3)nc12 | 0.54 µg/mL (≈ 1.62 µM) | 28.3 | 15.3 µg/mL (≈ 46.1 µM) | – | – | –
16 | O=C(Nc1cccc(Br)c1)c1cccc2[nH]c(-c3ccncc3)nc12 | 4.12 µg/mL (≈ 10.5 µM) | 2 | < 8.24 µg/mL | – | – | –
17 | NC(=O)c1cccc2[nH]c(-c3cccnc3)nc12 | 6.2 µg/mL (≈ 26 µM) | 2.98 | 18.5 µg/mL (≈ 77.6 µM) | – | – | –
18 | Cc1ccccc1NC(=O)c1cccc2[nH]c(-c3ccncc3)nc12 | 2.42 µg/mL (≈ 7.37 µM) | 11.48 and 4.81 | – | – | 2.23 µg/mL (≈ 6.79 µM) | <27.8 µg/mL and <10.74 µg/mL
